# Reference: PMC2941991 (ACS chemical biology, 2009)
# Biological target: T1, T877A full-length androgen receptor mutant (Homo sapiens, UniProt P10275, T878A)
# T1 sequence (P10275 1-920 T878A): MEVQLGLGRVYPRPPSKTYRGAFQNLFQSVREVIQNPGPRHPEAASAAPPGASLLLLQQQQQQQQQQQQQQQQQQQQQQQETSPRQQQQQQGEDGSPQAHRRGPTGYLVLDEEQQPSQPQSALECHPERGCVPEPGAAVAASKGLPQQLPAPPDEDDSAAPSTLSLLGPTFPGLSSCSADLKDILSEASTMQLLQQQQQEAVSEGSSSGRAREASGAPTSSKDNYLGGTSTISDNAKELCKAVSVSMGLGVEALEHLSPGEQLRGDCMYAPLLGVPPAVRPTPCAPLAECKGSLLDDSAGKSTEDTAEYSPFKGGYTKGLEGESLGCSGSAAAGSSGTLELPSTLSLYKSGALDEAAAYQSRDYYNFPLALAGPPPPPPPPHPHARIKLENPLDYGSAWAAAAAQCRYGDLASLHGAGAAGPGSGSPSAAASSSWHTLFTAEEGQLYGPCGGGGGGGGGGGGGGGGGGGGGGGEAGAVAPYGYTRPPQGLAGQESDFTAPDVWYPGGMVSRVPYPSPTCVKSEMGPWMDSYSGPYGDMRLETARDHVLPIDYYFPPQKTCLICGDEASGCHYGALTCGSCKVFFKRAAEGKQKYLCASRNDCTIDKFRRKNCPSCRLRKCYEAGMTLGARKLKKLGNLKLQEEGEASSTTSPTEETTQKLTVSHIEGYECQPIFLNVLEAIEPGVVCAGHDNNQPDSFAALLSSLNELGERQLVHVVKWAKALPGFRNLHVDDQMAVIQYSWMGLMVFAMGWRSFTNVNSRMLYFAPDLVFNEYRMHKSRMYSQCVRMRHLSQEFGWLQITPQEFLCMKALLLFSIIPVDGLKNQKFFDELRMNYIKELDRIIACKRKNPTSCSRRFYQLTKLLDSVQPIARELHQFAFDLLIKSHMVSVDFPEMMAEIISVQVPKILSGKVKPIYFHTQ
# Assay: Luciferase reporter gene assay, full-length AR with the LNCaP mutation
# Format: cell-based
smiles,measurement,value
"CC(C)(O)C(=O)Nc1ccc([N+](=O)[O-])c(C(F)(F)F)c1 [OH-Flu, 2-hydroxyflutamide]",Agonist or antagonist action on the AR T877A mutant,act as agonists
